Test results taken from patent publication US20230010299A1, “HETEROCYCLIC TRPML1 AGONISTS” (LIBRA THERAPEUTICS, INC., priority 2019, published 2023).
Where two headings read alike, the source gives them in different places.

What was measured:
[1] = test system: autophagy reporter Rosella (LC3 tag) in HeK293 cell line; test: Autophagy assay (reporter Rosella, imaging); format: cell-based; conditions: HeK293 cells stably expressing reporter Rosella, 18 hours incubation, reference Torin-1 1 μM as max signal, read-out: Secondary Assays Autophagy qAC50
Protocol: Buffers and Reagents • Tyrode's buffer with 2 mM Ca^2+ in-house solution (130 mM NaCl, 5 mM KCl, 2 mM CaCl2), 1 mM MgCl2, 5 mM NaHCO3, 20 mM HEPES in water at pH 7.4; sterile filtered) • DMSO (Sigma) • Bis-benzimide H 33342 trihydrochloride (Hoechst 33342; Sigma-Aldrich) • Reference molecule (agonist): Torin-1, (#4247, Tocris) stock 1.2 mM in DMSO, stored at −20° C.
Reporter of Autophagy and Cell Line
Reporter Rosella: a fluorescent-based chimera constitutes by two fluorescent proteins, Green and Red variants, acting as a bimodal indicator of pH. […] The reporter is fused to sequence for autophagosome localization (LC3 tag).
The reporter Rosella have been stably expressed in HeK293 cell line and used as read-out.
Experiments have been performed in 384 MTP poly-lysine coated well format. Cells have been seeded in 384-w at a density of 6000 cells/well in 25 μl/well complete growth medium without antibiotics. Twenty-four hours later, cells have been treated with compounds and incubated for further 18 hours. Then the cells have been imaged and assayed for the response to various compounds using the reporter for autophagy expressed in the cells as readout.
The experiments were performed in a 384-well format according to the following procedure: • 24 h after seeding, cells were incubated with compounds at the desired concentration, and with the reference molecule (agonist) Torin-1 at a top concentration of 1 μM (max signal), for 18 hours at 37° C. and 5% CO2. The final percentage of DMSO was 0.3% in all the conditions. • Then the culture medium was carefully removed to avoid cells detachment and to discard red phenol into the medium and that can interfere with the measurements. • Staining of the nuclei was obtained by incubating the cells with 8 μM/well of Hoechst 3342 in standard Tyrode's buffer for 20 min at RT • Then the cells were carefully washed two times with standard Tyrode's buffer • Finally, the samples were acquired by recording three fluorescence emission channels (green, red and blue) at 20× magnification and with at least 3-4 fields of view per well in an Operetta CLS microscope (PerkinElmer). • Image analysis was performed by using Harmony software (PerkinElmer). The image analysis involved the following steps: flat-field illumination correction, nuclei segmentation, cell segmentations and identification of vesicles/granules within the cytosol compartments and representing the autophagy vesicles. Measurements of signal intensity ratio (Green to Red) and number of autophagy vesicles per cells were used to obtain information on the effects of compounds on the autophagy flux. • Data from image analysis measurements were finally loaded and analyzed for normalization and fitting procedures in Genedata Screener© software.

[2] = molecular target: T1, TRPML1 (Homo sapiens, UniProt Q9GZU1); test: Cellular TRPML1 assay (FLIPR TETRA, GCaMP6f calcium read-out); format: cell-based; conditions: HEK T-REx/GCaMP6f/TRPML1 cells; Ca2+ response over 300 s, normalized to ML-SA1 50 μM; Ca2+ free or Optimem condition not given; read-out: Ec50 (Activity of TRPML1 agonists)
T1 construct: expressed in transfected cells
Outline: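 HEK T-REx cells stably expressing TRPML1 and GCaMP6f, assayed 24 h after seeding in Ca2+-free Tyrode's (pH 7.4) or Opti-MEM. Compounds injected on FLIPR Tetra (0.5% DMSO) in dose-response from 100 μM (1:2) or 50 μM (1:3.16); fluorescence kinetics 300 s, referenced to 50 μM ML-SA1 stimulator control.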

T1 sequence (Q9GZU1 whole entry): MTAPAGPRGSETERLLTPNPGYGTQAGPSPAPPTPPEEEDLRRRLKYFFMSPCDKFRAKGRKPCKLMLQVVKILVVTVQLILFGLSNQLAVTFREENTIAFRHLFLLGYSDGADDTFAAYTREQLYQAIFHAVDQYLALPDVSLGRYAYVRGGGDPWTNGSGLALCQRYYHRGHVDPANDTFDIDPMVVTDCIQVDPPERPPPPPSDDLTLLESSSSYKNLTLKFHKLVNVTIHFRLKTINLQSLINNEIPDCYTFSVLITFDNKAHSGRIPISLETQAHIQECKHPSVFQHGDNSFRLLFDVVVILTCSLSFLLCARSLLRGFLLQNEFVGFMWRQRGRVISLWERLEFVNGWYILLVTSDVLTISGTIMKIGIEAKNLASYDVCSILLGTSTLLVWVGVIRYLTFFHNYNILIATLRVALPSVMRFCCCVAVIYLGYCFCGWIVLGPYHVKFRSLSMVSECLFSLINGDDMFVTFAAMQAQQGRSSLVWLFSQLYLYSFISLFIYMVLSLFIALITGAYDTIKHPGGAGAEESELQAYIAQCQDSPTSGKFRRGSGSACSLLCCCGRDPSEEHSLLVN

Row | Compound | EC50 ([1]; Homo sapiens) | EC50 [2] | EC50 [1]
1 | CCCOC1CCN(c2ccccc2NS(=O)(=O)c2cc(C)sc2C)CC1 [Example 68, 2,5-dimethyl-N-(2-(4-propoxypiperidin-1-yl)phenyl)thiophene-3-sulfonamide] | 15.3 µM | 4.6 µM | –
2 | CCc1ccc(S(=O)(=O)Nc2ccccc2N2CCC(C(=O)OC(C)(C)C)CC2)cc1 [Example 19, tert-butyl 1-(2-((4-ethylphenyl)sulfonamido)phenyl)piperidine-4-carboxylate] | 0.6 µM | 2.1 µM | –
3 | Cc1nc(S(=O)(=O)Nc2ccccc2N2CCC(Oc3ccccn3)CC2)c(C)s1 [Example 99, 2,5-dimethyl-N-(2-(4-(pyridin-2-yloxy)piperidin-1-yl)phenyl)thiazole-4-sulfonamide] | 6 µM | 5 µM | –
4 | CC(C)N(C(=O)c1ccc(S(C)(=O)=O)cc1)c1ccccc1N1CCN(C(=O)OC(C)(C)C)CC1 [Example 96, tert-butyl 4-(2-(N-isopropyl-4-(methylsulfonyl)benzamrdo)phenyl)piperazine-1-carboxylate] | – | 7.3 µM | 11.2 µM
5 | CN(C)S(=O)(=O)c1ccc(S(=O)(=O)Nc2ccccc2N2CCC(F)(F)CC2)cc1 [Example 33, N4-[2-(4,4-difluoropiperidin-1-yl)phenyl]-N1,N1-dimethylbenzene-1,4-disulfonamide] | 1.3 µM | 10.8 µM | –
6 | Cc1cc(S(=O)(=O)Nc2ccccc2N2CCN(C(=O)OC(C)(C)C)CC2)c(C)o1 [Example 58, tert-butyl 4-(2-((2,5-dimethylfuran)-3-sulfonamido)phenyl)piperazine-1-carboxylate] | 22.4 µM | 2.3 µM | –
7 | CCN(C(=O)c1ccc(S(=O)(=O)N(C)C)cc1)c1ccccc1N1CCN(C(=O)OC(C)(C)C)CC1 [Example 20, tert-butyl 4-(2-(4-(N,N-dimethylsulfamoyl)-N-ethylbenzamido)phenyl)piperazine-1-carboxylate] | 0.46 µM | 3.4 µM | –
8 | COC1CCCN(c2ccccc2NS(=O)(=O)c2ccc(S(=O)(=O)N(C)C)cc2)CC1 (racemic) [Example 40, N1-(2-(4-methoxyazepan-1-yl)phenyl)-N4,N4-dimethylbenzene-1,4-disulfonamide] | 1.3 µM | 3 µM | –
9 | CC(C)N(C(=O)c1ccc(S(=O)(=O)N(C)C)cc1)c1ccccc1N1CCN(C(=O)OC(C)(C)C)CC1 [Example 46, tert-butyl 4-(2-(4-(N,N-dimethylsulfamoyl)-N-isopropylbenzamido)phenyl)piperazine-1-carboxylate] | 1.3 µM | 9.4 µM | –
10 | Cc1ccc(S(=O)(=O)Nc2ccccc2N2CCC(Oc3ccccn3)CC2)c(C)c1 [Example 65, 2,4-dimethyl-N-(2-(4-(pyridin-2-yloxy)piperidin-1-yl)phenyl)benzenesulfonamide] | 31.4 µM | 3.5 µM | –
